Converted amounts (≈) assume the structure as drawn.
Experiments:
[1] = Stability in solution (remaining activity by paper disc assay); type: physicochemical; conditions: for Remaining Activity (%): 0 days; for remaining at 48 h: 2 days; for remaining at 72 h: 3 days; for remaining at 168 h: 7 days
Description: Stability of BB-[…] was determined in both a 10% and an 0.02% solution. The stability is indicated as the relative activity remaining in the test solution at given periods to the initial solution. The activity was assayed using paper discs on B. subtilis PCI 219 plate (pH 6).

Kl. pneumoniae = test: MIC by Steers' agar dilution method; type: cell-based; conditions: Klebsiella pneumoniae
Sal. anthracis = test: microbe, parasite or virus in culture; type: cell-based
Sal. enteritidis = test: MIC by Steers' agar dilution method; conditions: Salmonella enterica
[2] = Nephrotoxicity test in rabbits; conditions: 100 mg./kg. (iv)
[3] = system: E. cloacae A20464 (El-19); test: Standard experimental infection in mice; type: in vivo; conditions: Run C-811
[4] = 0.02% solution, pH 4 (0.1 M AcOH - NaOAc buffer)
[5] = 0.02% solution, pH 7 (0.1 M phosphate buffer)
[6] = 0.1 m nh4oh-nh4cl buffer, 0.02% solution, pH 9 (0.1 M NH4 OH--NH4 Cl buffer)
[7] = 10% aqueous solution, room temperature, pH 6.1 (unadjusted)

O=C(O)Cn1nc2ccc(SCC3=C(C(=O)O)N4C(=O)C(NC(=O)[C@H](O)c5ccccc5)[C@H]4SC3)nn2c1=O (stereo partly drawn) [BB-S488, 7-(D-Mandelamido)-3-(2-carboxymethyl-2,3-dihydro-s-triazolo[4,3-b]pyridazin-3-on-6-ylthiomethyl)-3-cephem-4-carboxylic Acid]
Remaining Activity (%) [1, 4]: 100%
remaining at 48 h [1, 4]: 93%
remaining at 72 h [1, 4]: 78%
remaining at 168 h [1, 4]: 102%
Remaining Activity (%) [1, 5]: 100%
remaining at 48 h [1, 5]: 87%
remaining at 72 h [1, 5]: 64%
remaining at 168 h [1, 5]: 56%
Remaining Activity (%) ([1]; 0.02% solution, pH 9 (0.1 M NH4 OH--NH4 Cl buffer)): 100%
remaining at 24 h ([1]; 0.1 m nh4oh-nh4cl buffer, 0.02% solution, pH 9 (0.1 M NH4 OH--NH4 Cl buffer), 1 day): 20%
remaining at 48 h [1, 6]: 14%
remaining at 72 h [1, 6]: 13%
remaining at 168 h [1, 6]: 0%
Remaining Activity (%) [1, 7]: 100%
remaining at 48 h [1, 7]: 128%
remaining at 72 h [1, 7]: 90%
remaining at 168 h [1, 7]: 116%
MIC (Kl. pneumoniae; A9678, MHA, Table 1): 3.1 µg/mL (≈ 5.41 µM)
MIC (Kl. pneumoniae; A9867, MHA, Table 1): 0.2 µg/mL (≈ 0.349 µM)
MIC (Kl. pneumoniae; A9977, MHA, Table 1): 0.05 µg/mL (≈ 0.0873 µM)
MIC (Kl. pneumoniae; A15130, MHA, Table 1): 0.2 µg/mL (≈ 0.349 µM)
MIC (Kl. pneumoniae; Kp-1 D11, MHA, Table 3): 0.1 µg/mL (≈ 0.175 µM)
MIC (Kl. pneumoniae; Kp-2 A9678, MHA, Table 3): 3.1 µg/mL (≈ 5.41 µM)
MIC (Kl. pneumoniae; Kp-3 A9977, HIA, Table 4): 0.2 µg/mL (≈ 0.349 µM)
MIC (Kl. pneumoniae; Kp-3 A9977, MHA, Table 3): 0.1 µg/mL (≈ 0.175 µM)
MIC (Kl. pneumoniae; Kp-3 A9977, MHA, Table 4): 0.2 µg/mL (≈ 0.349 µM)
MIC (Kl. pneumoniae; Kp-3 A9977, NA, Table 4): 0.4 µg/mL (≈ 0.699 µM)
MIC (Kl. pneumoniae; Kp-4 A15130, HIA, Table 4): 0.8 µg/mL (≈ 1.4 µM)
MIC (Kl. pneumoniae; Kp-4 A15130, MHA, Table 3): 0.2 µg/mL (≈ 0.349 µM)
MIC (Kl. pneumoniae; Kp-4 A15130, MHA, Table 4): 0.4 µg/mL (≈ 0.699 µM)
MIC (Kl. pneumoniae; Kp-4 A15130, NA, Table 4): 0.8 µg/mL (≈ 1.4 µM)
MIC (Kl. pneumoniae; Kp-7 A9867, MHA, Table 3): 0.4 µg/mL (≈ 0.699 µM)
MIC (Kl. pneumoniae; Kp-8 A20680, MHA, Table 3): 25 µg/mL (≈ 43.7 µM)
MIC (Kl. pneumoniae; Kp-9 A20636, MHA, Table 3): 12.5 µg/mL (≈ 21.8 µM)
MIC (Kl. pneumoniae; Kp-10 A20328, MHA, Table 3): 6.3 µg/mL (≈ 11 µM)
MIC (Kl. pneumoniae; Kp-11 A20330, MHA, Table 3): 1.6 µg/mL (≈ 2.79 µM)
MIC (Kl. pneumoniae; Kp-12 A21228, MHA, Table 3): 6.3 µg/mL (≈ 11 µM)
MIC (Kl. pneumoniae; strain not named (1st of 4), MHA, Example 10): 3.1 µg/mL (≈ 5.41 µM)
MIC (Kl. pneumoniae; strain not named (2nd of 4), MHA, Example 10): 0.1 µg/mL (≈ 0.175 µM)
MIC (Kl. pneumoniae; strain not named (3rd of 4), MHA, Example 10): 0.4 µg/mL (≈ 0.699 µM)
MIC (Kl. pneumoniae; strain not named (4th of 4), MHA, Example 10): 0.2 µg/mL (≈ 0.349 µM)
MIC (Sal. anthracis): 0.1 µg/mL (≈ 0.175 µM)
MIC (Sal. enteritidis; A9531, MHA, Table 1): 0.05 µg/mL (≈ 0.0873 µM)
MIC (Sal. enteritidis; MHA, Example 10): 0.025 µg/mL (≈ 0.0437 µM)
MIC (Sal. enteritidis; Se-1 A9531, MHA, Table 3): 0.1 µg/mL (≈ 0.175 µM)
Nephrotoxicity [2]: No nephrotoxic sign was seen
ED50 ([3]; Enterobacter cloacae, read-out: PD50): 0.54 mg/kg
No. of survivors/No. tested ([3]; 0.4 mg./kg.): 2/5
No. of survivors/No. tested ([3]; 1.6 mg./kg.): 4/5
No. of survivors/No. tested ([3]; 6.3 mg./kg.): 5/5

Source: US4112228A, “7-(D-α-Hydroxy-2-arylacetamido)-3-(2-carboxyalkyl-2,3-dihydro-s-tri azolo-[4,3-b]pyridazin-3-on-6-ylthiomethyl)-3-cephem-4-carboxylic acids and derivatives” (priority 1977, dated 1978)
